The values below come from patent US7863315B2, “2-indolinone derivatives as selective histone deacetylase inhibitors” (Shenzhen Chipscreen Biosciences, Ltd., priority 2008, dated 2011).

In assay [1] the test system is HDAC7 (Nur77 reporter gene). The assay is described as follows: HDAC subtype reporter gene assay, Nur77-promoter luciferase in HeLa cells. Type of assay: cell-based. Conditions: Homo sapiens, M-HeLa, read-out: % of SAHA Response for HDAC7 at 10 μM (Nur77 reporter gene), 24 hours. The procedure: (§1) Measurement of inhibition of HDAC subtypes activity in cells by reporter gene assay: HDAC subtype selectivity inhibition assay of tested compounds was carried out by several reporter gene assays experiments. Briefly, HeLa cells were seeded in 96-well plates the day before transfection to give a confluence of 50-80%. Cells were transfected with one of reporter gene plasmids containing a promoter sequences or response elements upstream of a luciferase gene construct using FuGene6 transfection reagent according to the manufacturer's instructions (Roche). The promoters or response elements including p21-promoter, gdf11-promoter, MEF-binding element (MEF2), Nur77-promoter were fused upstream to the luciferase gene reporter construct. For normalizing the transfection efficiency, a GFP expression plasmid was cotransfected. Cells were allowed to express protein for 24 hours followed by addition of individual compounds or the vehicle (DMSO). 24 hours later, the cells were harvested and the luciferase assays were performed using the luciferase assay kit according to the manufacturer's instructions (Promega). To normalize the data from the luciferase assays, GFP activity from transfected cells was measured in a microtiter-plate reading fluorimeter capable of excitation at a wavelength at 485 nm and detection of emitted light at 527 nm.
Background: In a reporter assay the amount or activity of a reporter protein is the signal.

Assay [2] concerns HDAC class I (p21 reporter gene). The assay is described as follows: HDAC subtype reporter gene assay, p21-promoter luciferase in HeLa cells. Type of assay: cell-based. The conditions noted are these: Homo sapiens, M-HeLa, read-out: % of SAHA Response for HDAC class I at 10 μM (p21 reporter gene), 24 hours. The procedure: as §1
Assay [3] concerns HDAC3 (gdf11 reporter gene). The assay is described as follows: HDAC subtype reporter gene assay, gdf11-promoter luciferase in HeLa cells. Type of assay: cell-based. The conditions noted are these: Homo sapiens, M-HeLa, read-out: % of SAHA Response for HDAC3 at 10 μM (gdf11 reporter gene), 24 hours. The method, then: as §1
The subject of assay [4] is lysine acetylation. The assay is described as follows: ELISA assay of acetylation of lysine in HeLa cells. Type of assay: cell-based. The conditions noted are these: Homo sapiens, M-HeLa, 24 hours. The source says: Measurement of acetylation activity in cells on substrates:
ELISA Assay of Acetylation of Lysine
This assay is used to measure in vivo inhibition of HDAC6 in a cytoblot assay.
Materials and Reagent: • 1. 24-well tissue culture • 2. DMEM Medium containing 10% FBS • 3. 96-well white plate • 4. HeLa cell line • 5. M-PER Mammalian Protein Extraction Reagent (Pierce) • 6. Bradford assay reagent • 7. Acetylated-lysine polyclonal Antibody (Cell Signaling) • 8. HRP-labeled anti-rabbit IgG (Upstate) • 9. Coating Buffer: 15 mM Na2CO3, 35 mM NaHCO3 (pH 9.6) • 10. 10×PBS: 0.58M Na2HPO4, 0.17M NaH2PO4, 0.68M NaCl (pH 7.4) • 11. Wash Buffer:1×PBS containing 0.05% Tween-20 (PBST) • 12. Blocking Buffer:10 mg/ml bocine serum albumin (BSA) in PBS • 13. Antibody Dilution Buffer: 5 mg/ml BSA in PBST • 14. Enhanced chemiluminescence (ECL) (Amersham)
Procedure for performing the assay in 96-well plate: • 1. HeLa cells were seeded at a density of 60000 cells/500 μl/well in 24-well plate and incubated at 37° C. for 24 hours. • 2. Compounds were added and incubated for 24 hours at 37° C. • 3. Culture medium was removed, then washes the cells twice with ice-cold PBS. • 4. Add 100 μl/well of Protein Extraction Reagent and gently shake the mixture for 5 minutes. • 5. Collect the lysate to a 96-well plate respectively. Determine the concentration of protein by Bradford assay. • 6. Coat the wells of a 96-well white plate with 100 μl/well of 2.5 μg whole cell protein in Coating Buffer by incubating overnight at 4° C. • 7. Discard the uncoated proteins and wash the coated wells three times with 200 μl/well of PBST. • 8. Block coated wells by incubating the plate with 200 μl/well of Blocking Buffer for 1 hour at 37° C. • 9. Wells were aspirated and washed three times with 200 μl/well of PBST. • 10. After aspirating, 50 μl/well of Antibody Dilution Buffer containing acetylated-lysine polyclonal antibody (1:1000) were added to each well and incubated for 2 hour at 37° C. • 11. Wells were aspirated and washed three times with 200 μl/well of PBST. • 12. 50 μl/well of Antibody Dilution Buffer containing HRP-labeled anti-rabbit IgG (1:2000) were added to each well and incubated for 2 hour at 37° C. • 13. Wells were aspirated and washed three times with 200 μl/well of PBST. • 14. Wells were washed three times with 200 μl/well of purified water. • 15. Add 50 μl/well of ECL mixture, then read the plates on the plate reader.
For orientation: ELISA stands for enzyme-linked immunosorbent assay.

Assay [5] deals with total HDAC enzyme (HeLa extract). The assay is described as follows: In vitro inhibition of total HDAC enzyme activity (HDAC Fluorimetric Assay/Drug Discovery Kit, BIOMOL). Type of assay: biochemical, human. The method, then: Measurement of in vitro inhibition of total HDAC enzyme activity:
The in vitro inhibition of total HDAC enzyme was determined by HDAC Fluorimetric Assay/Drug Discovery Kit (BIOMOL) according to manufacture's instruction. • 1. Add Assay buffer, diluted trichostatin A or test inhibitor to appropriate wells of the microtiter plate. Following table lists examples of various assay types and the additions required for each test.
• 2. Add diluted HeLa extract or other HDAC sample to all wells except those that are to be “No Enzyme Controls” (Blank). • 3. Allow diluted Fluor de LyS™ Substrate and the samples in the microtiter plate to equilibrate to assay temperature (25° C.). • 4. Initiate HDAC reactions by adding diluted substrate (25 μl) to each well and mixing thoroughly. • 5. Allow HDAC reactions to proceed for desired length of time and then stop them by addition of Fluor de Lys™ Developer (50 μl). Incubate plate at room temperature (25° C.) for 10-15 min. • 6. Read samples in a microtiter-plate reading fluorimeter capable of excitation at a wavelength in the range 350-380 nm and detection of emitted light in the range 440-460 nm.

Assay [6] has as its system HDAC4/5 (MEF2 reporter gene). The assay is described as follows: HDAC subtype reporter gene assay, MEF-binding element (MEF2) luciferase in HeLa cells. Type of assay: cell-based. The conditions noted are these: Homo sapiens, M-HeLa, read-out: % of SAHA Response for HDAC4/5 at 10 μM (MEF2 reporter gene), 24 hours. The procedure: as §1

As usually defined, the fold induction is the signal under treatment as a multiple of the control signal. Higher therefore signals a large rise in signal. Turning to `Nc1ccccc1NC(=O)CCCCCCCNC(=O)c1ccc(/C=N/N=C2\C(=O)Nc3ccc(F)cc32)cc1` [Example 35, 8-(4-(((5-fluoro-2-oxoindolin-3-ylidene)hydrazono)methyl)benzamido)-N-(2-aminophenyl)octanamide], the Emax at 10 µM in assay [1] turned out to be 13%; in assay [2], 56%; in assay [3], 36%; in assay [6], 46%. The fold induction at 10 µM in assay [4] stood at 1.04. Besides, in assay [5], the “% of Inhibition on Total HDAC Enzyme at 30 μM” value (“% of Inhibition” below) was 22%.
For `Nc1cc(F)ccc1NC(=O)CCCCCCCNC(=O)c1ccc(/C=N/N=C2\C(=O)Nc3ccc(F)cc32)cc1` [Example 36, 8-(4-(((5-fluoro-2-oxoindolin-3-ylidene)hydrazono)methyl)benzamido)-N-(2-amino-4-fluorophenyl)octanamide], the Emax at 10 µM in assay [1] came out at 7%; in assay [2], 9%; in assay [3], 6%; in assay [6], 50%. The fold induction at 10 µM in assay [4] is 1.35. Also, the “% of Inhibition” value in assay [5] is on record as −16%.
As for `Nc1ccccc1NC(=O)CCCCCNC(=O)c1ccc(/C=C2\C(=O)Nc3ccc(F)cc32)cc1` [Example 39, 6-(4-((5-fluoro-2-oxoindolin-3-ylidene)methyl)benzamido)-N-(2-aminophenyl)hexanamide], the Emax at 10 µM stood at 29% in assay [1], 67% in assay [2], 41% in assay [3] and 45% in assay [6]. For the same compound, the fold induction at 10 µM in assay [4] was 1.73. The “% of Inhibition” value in assay [5] is recorded as 31%.
Take `Nc1cc(F)ccc1NC(=O)CCCCCNC(=O)c1ccc(/C=C2\C(=O)Nc3ccc(F)cc32)cc1` [Example 40, 6-(4-((5-fluoro-2-oxoindolin-3-ylidene)methyl)benzamido)-N-(2-amino-4-fluorophenyl)hexanamide]: the Emax at 10 µM came out at 9% in assay [1], 19% in assay [2], 13% in assay [3] and 56% in assay [6]. For the same compound, in assay [4], the fold induction at 10 µM was determined as 1.5. The “% of Inhibition” value in assay [5] is listed as 22%.
Turning to `O=C(CCCCCNC(=O)c1ccc(/C=C2\C(=O)Nc3ccc(F)cc32)cc1)NO` [Example 41, 6-(4-((5-fluoro-2-oxoindolin-3-ylidene)methyl)benzamido)-N-hydroxyhexanamide], the Emax at 10 µM in assay [1] came to 4%; in assay [2] it was 13%; in assay [3], 11%; in assay [6], 21%. In addition, the fold induction at 10 µM in assay [4] worked out at 1.6. Also, in assay [5], the “% of Inhibition” value came to 96%.
As to `Nc1ccccc1NC(=O)CCCCCNC(=O)c1cccc(/C=C2\C(=O)Nc3ccc(F)cc32)c1` [Example 44, 6-(3-((5-fluoro-2-oxoindolin-3-ylidene)methyl)benzamido)-N-(2-aminophenyl)hexanamide], the Emax at 10 µM in assay [1] stood at 35%; in assay [2], 97%; in assay [3] it was 48%; in assay [6] it was 85%. Also, in assay [4], the fold induction at 10 µM was 1.42. For the same compound, the “% of Inhibition” value in assay [5] is on record as 30%.
`Nc1cc(F)ccc1NC(=O)CCCCCNC(=O)c1cccc(/C=C2\C(=O)Nc3ccc(F)cc32)c1` [Example 45, 6-(3-((5-fluoro-2-oxoindolin-3-ylidene)methyl)benzamido)-N-(2-amino-4-fluorophenyl)hexanamide]: the Emax at 10 µM worked out at 16% in assay [1], 19% in assay [2], 12% in assay [3] and 44% in assay [6]. Also, the fold induction at 10 µM in assay [4] is 1.17. The “% of Inhibition” value in assay [5] came to 30%.
With `O=C(CCCCCNC(=O)c1cccc(/C=C2\C(=O)Nc3ccc(F)cc32)c1)NO` [Example 46, 6-(3-((5-fluoro-2-oxoindolin-3-ylidene)methyl)benzamido)-N-hydroxyhexanamide], the Emax at 10 µM was found to be 4% in assay [1], 15% in assay [2], 10% in assay [3] and 27% in assay [6]. Moreover, in assay [4], the fold induction at 10 µM stood at 1.16. For the same compound, in assay [5], the “% of Inhibition” value is 95%.
As to `Nc1ccccc1NC(=O)CCCCNC(=O)c1cccc(/C=C2\C(=O)Nc3ccc(F)cc32)c1` [Example 49, 5-(3-((5-fluoro-2-oxoindolin-3-ylidene)methyl)benzamido)-N-(2-aminophenyl)pentanamide], the Emax at 10 µM in assay [1] is 8%; in assay [2], 18%; in assay [3], 11%; in assay [6], 32%. This compound also had a fold induction at 10 µM in assay [4] of 1.02. Besides, the “% of Inhibition” value in assay [5] was 22%.
On to `Nc1cc(F)ccc1NC(=O)CCCCNC(=O)c1cccc(/C=C2\C(=O)Nc3ccc(F)cc32)c1` [Example 50, 5-(3-((5-fluoro-2-oxoindolin-3-ylidene)methyl)benzamido)-N-(2-amino-4-fluorophenyl)pentanamide], for which the Emax at 10 µM in assay [1] stood at 12%; in assay [2], 7%; in assay [3] it was 4%; in assay [6] it was 43%. Moreover, the fold induction at 10 µM in assay [4] was 1.08. In addition, in assay [5], the “% of Inhibition” value is −3%.
Take `O=C(CCCCNC(=O)c1cccc(/C=C2\C(=O)Nc3ccc(F)cc32)c1)NO` [Example 51, 5-(3-((5-fluoro-2-oxoindolin-3-ylidene)methyl)benzamido)-N-hydroxypentanamide]: the Emax at 10 µM in assay [1] was 3%; in assay [2] it was 18%; in assay [3], 12%; in assay [6], 33%. Also, the fold induction at 10 µM in assay [4] worked out at 1.31. In addition, the “% of Inhibition” value in assay [5] turned out to be 86%.
As for `Nc1ccccc1NC(=O)CCCCCCCNC(=O)c1cccc(/C=C2\C(=O)Nc3ccc(F)cc32)c1` [Example 54, 8-(3-((5-fluoro-2-oxoindolin-3-ylidene)methyl)benzamido)-N-(2-aminophenyl)octanamide], the Emax at 10 µM in assay [1] worked out at 25%; in assay [2], 72%; in assay [3], 52%; in assay [6], 53%. Moreover, in assay [4], the fold induction at 10 µM was 1.34. For the same compound, the “% of Inhibition” value in assay [5] was determined as 40%.
